Test results from patent US7060836B2, “Lactams as tachykinin antagonists” (Pfizer, Inc, priority 2001, dated 2006).

Biological target: T1, human NK2 receptor (Homo sapiens, UniProt P21452)
T1 construct: expressed in transfected cells; host or cells: Chinese hamster ovary (CHO) cells, membranes
T1 sequence (P21452 1-398): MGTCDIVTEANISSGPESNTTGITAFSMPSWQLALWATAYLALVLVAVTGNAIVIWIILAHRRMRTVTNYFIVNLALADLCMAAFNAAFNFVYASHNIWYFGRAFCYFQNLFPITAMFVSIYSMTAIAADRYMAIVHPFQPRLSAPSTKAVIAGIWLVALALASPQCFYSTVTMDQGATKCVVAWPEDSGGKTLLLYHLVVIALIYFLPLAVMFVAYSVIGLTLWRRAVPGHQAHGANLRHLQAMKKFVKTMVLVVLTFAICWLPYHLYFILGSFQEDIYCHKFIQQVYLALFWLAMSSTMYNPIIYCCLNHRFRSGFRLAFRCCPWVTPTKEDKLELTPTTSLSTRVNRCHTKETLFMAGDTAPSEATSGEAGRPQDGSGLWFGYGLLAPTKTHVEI
Assay: Competition with [3H] or [125I] NKA for binding to membranes of CHO cells expressing the cloned human NK2 receptor
Settings: membranes from CHO cells expressing cloned human NK2 receptor, 90 min, 25° C.
Protocol: The affinity of the compounds of formula (I), and their salts, for the human NK2 receptor can be assessed in vitro by testing their ability to compete with [^3H] or [^125I] NKA (neurokinin A) for binding to membranes prepared from Chinese hamster ovary cells expressing the cloned human NK2 receptor using a modification of the method described in McLean, S. et al., J. Pharm. Exp. Ther., 267, 472–9 (1993). The membranes are incubated (90 min, 25° C.) with [^3H] or [^125I] NKA and a range of concentrations of the test compound. Non specific binding was determined in the presence of 1 μM SR-48968 (N-[(2S)-4-[4-(acetylamino)-4-phenyl-1-piperidinyl]-2-(3,4-dichlorophenyl)butyl]-N-methyl benzamide).

| Structure (SMILES) | Ki [nM] |
| --- | --- |
| Cc1cccc(N2C[C@@](CCN3CC(N4CCOCC4)C3)(c3ccc(Cl)c(Cl)c3)CCC2=O)n1 [Example 131, (5S)-5-(3,4-Dichlorophenyl)-1-(6-methyl-2-pyridinyl)-5-{2-[3-(4-morpholinyl)-1-azetidinyl]ethyl}-2-piperidinone] | 3.8 |
| O=C1CC[C@](CCN2CCC(O)(c3ccccn3)CC2)(c2ccc(Cl)c(Cl)c2)CN1c1ccccn1 [Example 92, (5S)-5-(3,4-Dichlorophenyl)-5-{2-[4-hydroxy-4-(2-pyridyl)-1-piperidinyl]ethyl}-1-(2-pyridinyl)-2-piperidinone] | 7 |
| Cc1cccc(N2CC(CCN3CC(N4CCC(=O)CC4)C3)(c3ccc(Cl)c(Cl)c3)CCC2=O)n1 (centres unmarked) [Example 168, 5-(3,4-Dichlorophenyl)-1-(6-methyl-2-pyridinyl)-5-{2-[3-(4-oxo-1-piperidinyl)-1-azetidinyl]ethyl}-2-piperidinone] | 2.6 |
| Cc1cccc(N2C[C@@](CCN3CCC(O)(c4ccccc4)CC3)(c3ccc(Cl)c(Cl)c3)CCC2=O)n1 [Example 134, (5S)-5-(3,4-Dichlorophenyl)-1-(6-methyl-2-pyridinyl)-5-{{2-[4-hydroxy-4-phenyl]-1-piperidinyl}ethyl}-2-piperidinone] | 1.9 |

The next lines start with the values.

| Ki [nM] | Structure (SMILES) |
| --- | --- |
| 8 | CC(=O)N(C)C1CCN(CC[C@]2(c3ccc(Cl)c(Cl)c3)CCC(=O)N(c3ccccn3)C2)CC1 [Example 158, N-(1-{2-[(3S)-3-(3,4-Dichlorophenyl)-6-oxo-1-(2-pyridinyl)piperidinyl]ethyl}-4-piperidinyl)-N-methylacetamide] |
| 12 | COC1CCN(CC[C@]2(c3ccc(Cl)c(Cl)c3)CCC(=O)N(c3ccccn3)C2)CC1 [Example 61, (5S)-5-(3,4-Dichlorophenyl)-5-[2-(4-methoxy-1-piperidinyl)ethyl]-1-(2-pyridinyl)-2-piperidinone] |
| 5.4 | COc1cccc(N2C[C@@](CCN3CC(N4CCOCC4)C3)(c3ccc(Cl)c(Cl)c3)CCC2=O)n1 [Example 119, (5S)-5-(3,4-Dichlorophenyl)-1-(6-methoxy-2-pyridinyl)-5-{2-[3-(4-morpholinyl)-1-azetidinyl]ethyl}-2-piperidinone] |
| 2.2 | O=C1CC[C@](CCN2CC(N3CCC(O)CC3)C2)(c2ccc(Cl)c(Cl)c2)CN1c1ccccn1 [Example 73, (5S)-5-(3,4-Dichlorophenyl)-5-{2-[3-(4-hydroxy-1-piperidinyl)-1-azetidinyl]ethyl}-1-(2-pyridinyl)-2-piperidinone] |
| 2.4 | CC(=O)NC1(c2ccccc2)CCN(CC[C@]2(c3ccc(Cl)c(Cl)c3)CCC(=O)N(c3ccccn3)C2)CC1 [Example 90, N-(1-{2-[(3S)-3-(3,4-Dichlorophenyl)-6-oxo-1-(2-pyridinyl)piperidinyl]ethyl}-4-phenyl-4-piperidinyl)-acetamide] |
| 3.7 | Cc1cccc(N2C[C@@](CCN3CC(N4CCC(O)CC4)C3)(c3ccc(Cl)c(Cl)c3)CCC2=O)n1 [Example 135a, (5S)-5-(3,4-Dichlorophenyl)-1-(6-methyl-2-pyridinyl)-5-{2-[3-(4-hydroxypiperidinyl)-1-azetidinyl]ethyl}-2-piperidinone] |

Tested on: not given
Assay: not given
Settings: not given

| melting point [°C] | Structure (SMILES) |
| --- | --- |
| 175.5 to 177 | Cc1cccc(N2C[C@@](CCN3CC(N4CCC(O)CC4)C3)(c3ccc(Cl)c(Cl)c3)CCC2=O)n1.O=C(O)/C=C/C(=O)O |
